Assay results as given in article PMC3937211, “Serine Carboxypeptidase SCPEP1 and Cathepsin A Play Complementary Roles in Regulation of Vasoconstriction via Inactivation of Endothelin-1” (PLoS Genetics, 2014).

System: mice (arterial blood pressure)
Assay: Blood pressure response to intravenous peptide injection, radiotelemetry
Format: in vivo, mouse
Settings: for BP response to i.v. injection: 0.2 nmol/kg i.v.
Protocol: This hypothesis was further tested by measuring changes in BP in response to ET-1 and AI, the precursor of vasoconstrictive peptide AII. The changes in the diastolic and systolic BP (ΔDBP and ΔSBP, respectively) were calculated as the differences between the measured BP values and the basal values measured for the 30 min interval preceding the injection. To reduce the impact of the stress on BP caused by animal handling/injection, animals were receiving daily saline injections for 3 days prior to the experiment.
Figure 3 Mice with combined CathA/Scpep1 deficiency show higher increase in BP in response to systemic injection of ET-1. Sixteen week-old WT, Scpep1^−/−, CathA^S190A and DD male mice kept for two weeks on high-salt diet were intravenously injected with ET-1 solution in saline at a dose of 0.2 nmol/kg (A, B) and 5 nmol/kg (C, D). Changes in the systolic (ΔSBP) or diastolic (ΔDBP) blood pressure were calculated as differences between the means (±S.E) of the BP values recorded within 10 min intervals after the injections and means (±S.E) of the baseline BP values recorded within the 30 min interval before the injections. Two-way repeated measurements ANOVA was used to test differences between the mouse groups: significant differences between the mean BP values in Bonferroni post-test (* p<0.05, ** p<0.001, *** p<0.0001) are shown in the insert. N-value for each genotype is as follows: WT n = 5, DD n = 6, CathA^S190A n = 6, Scpep1 ^−/− n = 7.
Male CathA^S190A mice and appropriate littermate controls were implanted with TA11PA-C10 radiotelemetry sensors (Data Sciences International) in the left carotid artery for direct measurement of arterial pressure and heart rate as described, [38]. The transmitter was placed subcutaneously along the left flank. For basal measurements of mean day and night BP data were recorded continuously (sampling every hour for 20 sec) within 16 consecutive days and averaged for 12 h light and dark intervals. To measure changes in BP after ET-1 and AI injections data were recorded every 3 min for 2 h and averaged for 10-min consecutive intervals. […]

endothelin-1 [ET-1]
BP response to i.v. injection (DD mice versus other genotypes, high-salt diet): higher response as compared to all other groups of mice
BP response to i.v. injection (WT and Scpep1-deficient mice on high-salt diet): no BP increase
time BP remained significantly elevated after injection (5 nmol/kg i.v., DD mice): at least 60 min
